# Laboratory results as given in patent publication US6855312B1, “Hair care composition” (The Boots Company PLC, priority 1999, dated 2005).
# Tested on: Linoleic acid (model skin and hair lipid)
# Test: UVA/B-induced lipid peroxidation of linoleic acid, lipid hydroperoxides by colorimetric test (In Vitro Tests)
# Type: biochemical
# Details: first series; compared to irradiated vehicle alone; broad spectrum UVA/B
# Experimental: Linoleic acid (model skin and hair lipid) was incubated in the presence of various antioxidants and antoxidant combinations and was exposed to broad spectrum UVA/B to induce oxidation of the lipid. Following extraction of the lipid into methanol, the amount of lipid hydroperoxides (free radical generated damage) formed were measured with a specific colorimetric biochemical test. The degree of inhibition afforded by the antioxidants was thus measured and compared to irradiated vehicle controls.
# The percentage inhibition of free radical mediated lipid peroxidation when compared to the vehicle alone are given below.
# In a second series of experiments using antoxidants collected in a later season gave the following results.
compound,measurement,value
O=C1O[C@H]([C@@H](O)CO)C([O-])=C1OP(=O)([O-])[O-].[Na+].[Na+].[Na+] [Sodium ascorbyl phosphate],% inhibition of free radical mediated lipid peroxidation (observed),21%
